The source made the active and inactive calls. The rule behind the calls is not given here.
Legend:
[1] = test system: SNB-75; assay: Growth inhibition of human SNB75 cells assessed as cell growth at 10 uM incubated for 48 hrs by sulforhodamine B assay; format: functional; details: SNB-75, 48 h, read-out: Activity
[2] = test system: NCI-H460; assay: Growth inhibition of human NCI-H460 cells assessed as cell growth at 10 uM incubated for 48 hrs by sulforhodamine B assay; format: functional; details: NCI-H460, 48 h, read-out: Activity
[3] = test system: NCI-H226; assay: Growth inhibition of human NCI-H226 cells assessed as cell growth at 10 uM incubated for 48 hrs by sulforhodamine B assay; format: functional; details: NCI-H226, 48 h, read-out: Activity
[4] = test system: HCT-15; assay: Growth inhibition of human HCT15 cells assessed as cell growth at 10 uM incubated for 48 hrs by sulforhodamine B assay; format: functional; details: HCT-15, 48 h, read-out: Activity
[5] = test system: KM12; assay: Growth inhibition of human KM12 cells assessed as cell growth at 10 uM incubated for 48 hrs by sulforhodamine B assay; format: functional; details: KM12, 48 h, read-out: Activity
[6] = test system: NCI/ADR-RES; assay: Growth inhibition of human NCI/ADR-RES cells assessed as cell growth at 10 uM incubated for 48 hrs by sulforhodamine B assay; format: functional; details: read-out: Activity
[7] = test system: NCI-H322M; assay: Growth inhibition of human NCI-H322M cells assessed as cell growth at 10 uM incubated for 48 hrs by sulforhodamine B assay; format: functional; details: read-out: Activity
[8] = target: Serine/threonine-protein kinase ATR (Homo sapiens) (UniProt Q13535); assay: Inhibition of ATR in human U2OS cells assessed as reduction in hydroxyurea-induced H2AX phosphorylation at Ser139 residue at 3 to 10 uM preincubated for 1 hr followed by hydroxyurea challenge measured after 2 hrs by Western blot analysis; format: cell-based
[9] = test system: MDA-MB-231; assay: Growth inhibition of human MDA-MB-231 cells assessed as cell growth at 10 uM incubated for 48 hrs by sulforhodamine B assay; format: functional; details: MDA-MB-231, 48 h, read-out: Activity
[10] = test system: SNB-19; assay: Growth inhibition of human SNB19 cells assessed as cell growth at 10 uM incubated for 48 hrs by sulforhodamine B assay; format: functional; details: SNB-19, 48 h, read-out: Activity
[11] = test system: MDA-MB-435; assay: Growth inhibition of human MDA-MB-435 cells assessed as cell growth at 10 uM incubated for 48 hrs by sulforhodamine B assay; format: functional; details: MDA-MB-435, 48 h, read-out: Activity
[12] = test system: T47D; assay: Growth inhibition of human T47D cells assessed as cell growth at 10 uM incubated for 48 hrs by sulforhodamine B assay; format: functional; details: read-out: Activity
[13] = test system: SF-295; assay: Growth inhibition of human SF295 cells assessed as cell growth at 10 uM incubated for 48 hrs by sulforhodamine B assay; format: functional; details: SF-295, 48 h, read-out: Activity
[14] = test system: COLO 205; assay: Growth inhibition of human COLO205 cells assessed as cell growth at 10 uM incubated for 48 hrs by sulforhodamine B assay; format: functional; details: COLO 205, 48 h, read-out: Activity
[15] = test system: SF-268; assay: Growth inhibition of human SF268 cells assessed as cell growth at 10 uM incubated for 48 hrs by sulforhodamine B assay; format: functional; details: SF-268, 48 h, read-out: Activity
[16] = test system: LOX IMVI; assay: Growth inhibition of human LOXIMVI cells assessed as cell growth at 10 uM incubated for 48 hrs by sulforhodamine B assay; format: functional; details: read-out: Activity
[17] = test system: MOLT-4; assay: Growth inhibition of human MOLT4 cells assessed as cell growth at 10 uM incubated for 48 hrs by sulforhodamine B assay; format: functional; details: MOLT-4, 48 h, read-out: Activity
[18] = test system: SK-OV-3; assay: Growth inhibition of human SKOV3 cells assessed as cell growth at 10 uM incubated for 48 hrs by sulforhodamine B assay; format: functional; details: SK-OV-3, 48 h, read-out: Activity
[19] = test system: MDA-MB-468; assay: Growth inhibition of human MDA-MB-468 cells assessed as cell growth at 10 uM incubated for 48 hrs by sulforhodamine B assay; format: functional; details: MDA-MB-468, 48 h, read-out: Activity
[20] = test system: IGROV-1; assay: Growth inhibition of human IGROV1 cells assessed as cell growth at 10 uM incubated for 48 hrs by sulforhodamine B assay; format: functional; details: IGROV-1, 48 h, read-out: Activity
[21] = target: Serine/threonine-protein kinase ATR (Homo sapiens) (UniProt Q13535); assay: Inhibition of ATR in human U2OS cells assessed as reduction in etoposide-induced Chk-1 phosphorylation at Ser345 residue at 10 uM preincubated for 1 hr followed by etoposide challenge measured after 20 mins by Western blot analysis; format: cell-based
[22] = test system: OVCAR-3; assay: Growth inhibition of human OVCAR3 cells assessed as cell growth at 10 uM incubated for 48 hrs by sulforhodamine B assay; format: functional; details: OVCAR-3, 48 h, read-out: Activity
[23] = test system: SK-MEL-28; assay: Growth inhibition of human SK-MEL-28 cells assessed as cell growth at 10 uM incubated for 48 hrs by sulforhodamine B assay; format: functional; details: SK-MEL-28, 48 h, read-out: Activity
[24] = test system: SW-620; assay: Growth inhibition of human SW620 cells assessed as cell growth at 10 uM incubated for 48 hrs by sulforhodamine B assay; format: functional; details: SW-620, 48 h, read-out: Activity
[25] = test system: SR; assay: Growth inhibition of human SR cells assessed as cell growth at 10 uM incubated for 48 hrs by sulforhodamine B assay; format: functional; details: read-out: Activity
[26] = test system: UACC-62; assay: Growth inhibition of human UACC62 cells assessed as cell growth at 10 uM incubated for 48 hrs by sulforhodamine B assay; format: functional; details: UACC-62, 48 h, read-out: Activity
[27] = test system: Hs-578T; assay: Growth inhibition of human Hs578T cells assessed as cell growth at 10 uM incubated for 48 hrs by sulforhodamine B assay; format: functional; details: read-out: Activity
[28] = test system: A549; assay: Growth inhibition of human A549/ATCC cells assessed as cell growth at 10 uM incubated for 48 hrs by sulforhodamine B assay; format: functional; details: A549, 48 h, read-out: Activity
[29] = test system: RXF 393; assay: Growth inhibition of human RXF393 cells assessed as cell growth at 10 uM incubated for 48 hrs by sulforhodamine B assay; format: functional; details: RXF 393, 48 h, read-out: Activity
[30] = test system: K562; assay: Growth inhibition of human K562 cells assessed as cell growth at 10 uM incubated for 48 hrs by sulforhodamine B assay; format: functional; details: K562, 48 h, read-out: Activity
[31] = target: Serine-protein kinase ATM (Homo sapiens) (UniProt Q13315); assay: Inhibition of ATM in human U2OS cells assessed as reduction in hydroxyurea-induced Chk-2 phosphorylation at Thr68 residue at 10 uM preincubated for 1 hr followed by hydroxyurea challenge measured after 1 hr by Western blot analysis; format: cell-based
[32] = test system: OVCAR-4; assay: Growth inhibition of human OVCAR4 cells assessed as cell growth at 10 uM incubated for 48 hrs by sulforhodamine B assay; format: functional; details: OVCAR-4, 48 h, read-out: Activity
[33] = test system: HT-29; assay: Growth inhibition of human HT-29 cells assessed as cell growth at 10 uM incubated for 48 hrs by sulforhodamine B assay; format: functional; details: HT-29, 48 h, read-out: Activity
[34] = test system: M14; assay: Growth inhibition of human M14 cells assessed as cell growth at 10 uM incubated for 48 hrs by sulforhodamine B assay; format: functional; details: M14, 48 h, read-out: Activity

Serine/threonine-protein kinase ATR (Homo sapiens), sequence (Q13535 whole entry, looked up): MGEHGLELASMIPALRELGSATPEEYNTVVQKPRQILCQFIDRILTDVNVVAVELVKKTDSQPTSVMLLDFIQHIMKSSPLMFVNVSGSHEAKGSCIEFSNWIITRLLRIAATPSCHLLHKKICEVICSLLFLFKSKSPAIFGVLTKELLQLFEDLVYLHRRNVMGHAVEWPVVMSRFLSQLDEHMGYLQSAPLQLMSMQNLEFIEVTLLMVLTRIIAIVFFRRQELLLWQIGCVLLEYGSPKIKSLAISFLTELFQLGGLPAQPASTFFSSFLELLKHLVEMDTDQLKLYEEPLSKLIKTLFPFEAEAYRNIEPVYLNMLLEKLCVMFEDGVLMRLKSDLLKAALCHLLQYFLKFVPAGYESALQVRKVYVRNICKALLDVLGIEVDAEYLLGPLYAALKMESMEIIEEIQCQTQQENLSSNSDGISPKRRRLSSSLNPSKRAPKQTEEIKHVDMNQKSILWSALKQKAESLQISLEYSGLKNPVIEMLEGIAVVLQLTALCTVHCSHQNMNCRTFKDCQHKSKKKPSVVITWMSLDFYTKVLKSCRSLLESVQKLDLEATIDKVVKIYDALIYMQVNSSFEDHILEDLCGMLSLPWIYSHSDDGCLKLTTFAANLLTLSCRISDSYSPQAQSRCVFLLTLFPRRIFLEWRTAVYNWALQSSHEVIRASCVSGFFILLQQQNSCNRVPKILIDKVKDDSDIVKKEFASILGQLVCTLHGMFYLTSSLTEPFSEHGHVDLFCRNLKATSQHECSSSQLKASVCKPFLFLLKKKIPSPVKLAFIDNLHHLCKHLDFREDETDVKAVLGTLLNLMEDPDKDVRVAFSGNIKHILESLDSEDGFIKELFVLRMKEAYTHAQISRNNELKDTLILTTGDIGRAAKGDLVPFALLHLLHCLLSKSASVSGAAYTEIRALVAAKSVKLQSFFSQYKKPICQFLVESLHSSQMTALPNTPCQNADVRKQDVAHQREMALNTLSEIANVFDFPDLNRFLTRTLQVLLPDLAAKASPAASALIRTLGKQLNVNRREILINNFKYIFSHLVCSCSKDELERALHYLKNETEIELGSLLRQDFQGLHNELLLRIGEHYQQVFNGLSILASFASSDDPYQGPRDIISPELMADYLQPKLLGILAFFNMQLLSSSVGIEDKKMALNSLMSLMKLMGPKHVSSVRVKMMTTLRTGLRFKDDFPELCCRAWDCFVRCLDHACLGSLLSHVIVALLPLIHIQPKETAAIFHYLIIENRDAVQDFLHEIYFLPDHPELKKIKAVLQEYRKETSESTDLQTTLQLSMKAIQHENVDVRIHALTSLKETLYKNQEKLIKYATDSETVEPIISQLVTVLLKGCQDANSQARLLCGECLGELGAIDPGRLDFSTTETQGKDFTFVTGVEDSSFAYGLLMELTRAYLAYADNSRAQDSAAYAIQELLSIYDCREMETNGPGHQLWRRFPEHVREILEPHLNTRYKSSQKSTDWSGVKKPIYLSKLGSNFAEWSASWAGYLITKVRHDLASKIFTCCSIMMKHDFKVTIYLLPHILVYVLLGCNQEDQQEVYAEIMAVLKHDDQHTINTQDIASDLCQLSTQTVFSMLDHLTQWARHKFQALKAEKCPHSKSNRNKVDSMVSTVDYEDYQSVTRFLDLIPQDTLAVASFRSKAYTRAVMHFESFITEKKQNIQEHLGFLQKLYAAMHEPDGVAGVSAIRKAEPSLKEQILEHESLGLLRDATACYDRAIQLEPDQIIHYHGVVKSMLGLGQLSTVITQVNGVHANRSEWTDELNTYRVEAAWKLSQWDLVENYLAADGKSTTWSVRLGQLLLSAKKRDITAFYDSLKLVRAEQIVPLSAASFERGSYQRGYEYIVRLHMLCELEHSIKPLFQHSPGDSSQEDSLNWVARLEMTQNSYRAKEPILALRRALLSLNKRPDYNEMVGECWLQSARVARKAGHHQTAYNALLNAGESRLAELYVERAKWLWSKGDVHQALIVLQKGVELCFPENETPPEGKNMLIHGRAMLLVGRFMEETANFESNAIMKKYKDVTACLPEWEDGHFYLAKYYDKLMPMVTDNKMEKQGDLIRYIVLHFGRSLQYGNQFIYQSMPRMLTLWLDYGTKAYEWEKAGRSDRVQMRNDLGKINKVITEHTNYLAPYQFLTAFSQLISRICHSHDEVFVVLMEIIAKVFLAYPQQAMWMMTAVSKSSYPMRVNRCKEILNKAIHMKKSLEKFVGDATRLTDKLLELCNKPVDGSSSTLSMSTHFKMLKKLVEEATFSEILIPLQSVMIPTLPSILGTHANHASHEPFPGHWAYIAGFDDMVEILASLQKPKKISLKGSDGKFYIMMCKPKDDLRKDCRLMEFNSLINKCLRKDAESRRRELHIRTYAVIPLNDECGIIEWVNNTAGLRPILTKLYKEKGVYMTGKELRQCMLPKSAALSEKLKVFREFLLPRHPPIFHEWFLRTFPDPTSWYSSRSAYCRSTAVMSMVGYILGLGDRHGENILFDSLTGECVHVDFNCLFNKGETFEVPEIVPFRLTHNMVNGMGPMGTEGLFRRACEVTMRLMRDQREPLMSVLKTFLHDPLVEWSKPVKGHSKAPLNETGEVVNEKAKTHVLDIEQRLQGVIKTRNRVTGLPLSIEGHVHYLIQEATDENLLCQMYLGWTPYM

| SMILES | growth at 10 µM [1] [%] | growth at 10 µM [2] [%] | growth at 10 µM [3] [%] | growth at 10 µM [4] [%] | growth at 10 µM [5] [%] | growth at 10 µM [6] [%] | growth at 10 µM [7] [%] | inhibition [8] | growth at 10 µM [9] [%] | growth at 10 µM [10] [%] | growth at 10 µM [11] [%] | growth at 10 µM [12] [%] | growth at 10 µM [13] [%] | growth at 10 µM [14] [%] | growth at 10 µM [15] [%] | growth at 10 µM [16] [%] | growth at 10 µM [17] [%] | growth at 10 µM [18] [%] | growth at 10 µM [19] [%] | growth at 10 µM [20] [%] | also measured |
| --- | --- | --- | --- | --- | --- | --- | --- | --- | --- | --- | --- | --- | --- | --- | --- | --- | --- | --- | --- | --- | --- |
| C/S(=N\C#N)c1ccc(-c2cnc(N)c(C(=O)Nc3ccccc3)n2)cc1 (stereo not drawn) | 65.2 | 87.4 | 88.5 | 64.2 | 86.5 | 108 | 71.3 | Dose-dependent effect | 101 | 104 | 84 | 82.9 | 114 | 76.9 | 88.4 | 77.8 | 74.5 | 68 | 84.6 | 56.9 | inhibition [21]: Active; growth at 10 µM [22]: 83.4%; growth at 10 µM [23]: 97.4%; growth at 10 µM [24]: 85.9%; growth at 10 µM [25]: 57.1%; growth at 10 µM [26]: 82.2%; growth at 10 µM [27]: 74.6%; growth at 10 µM [28]: 85.4%; growth at 10 µM [29]: 62.9%; growth at 10 µM [30]: 62.2%; inhibition [31]: inactive; growth at 10 µM [32]: 87.3%; growth at 10 µM [33]: 76.3%; growth at 10 µM [34]: 69.5% |
| CS(=O)(=NC#N)c1ccc(-c2cnc(N)c(C(=O)Nc3ccccc3)n2)cc1 (stereo not drawn) | 56.9 | 83.9 | 92 | 63.2 | 78.2 | 96.9 | 78.6 | Dose-dependent effect | 102 | 105 | 87.7 | 99 | 99.2 | 88.3 | 87.7 | 66.5 | 64.7 | 56.8 | 96.7 | 59.8 | inhibition [21]: Active; growth at 10 µM [22]: 89.4%; growth at 10 µM [23]: 111%; growth at 10 µM [24]: 109%; growth at 10 µM [25]: 44%; growth at 10 µM [26]: 74.7%; growth at 10 µM [27]: 55%; growth at 10 µM [28]: 63.1%; growth at 10 µM [29]: 71%; growth at 10 µM [30]: 70.8%; inhibition [31]: inactive; growth at 10 µM [32]: 97%; growth at 10 µM [33]: 79.9%; growth at 10 µM [34]: 77.7% |

From ChEMBL document CHEMBL4020759, “Sulfoximines as ATR inhibitors: Analogs of VE-821” (2017)
